Source: PMC3274548, “Toward New Therapeutics for Skin and Soft Tissue Infections: Propargyl-Linked Antifolates Are Potent Inhibitors of MRSA and Streptococcus pyogenes” (PLoS ONE, 2012)
≈ marks a conversion by molar mass, not a printed value. Like-named read-outs stand apart in the source and are kept apart here.

Experiments:
Streptococcus pyogenes = test: MIC, broth microdilution with Alamar Blue; assay type: cell-based; conditions: for Selectivity S. pyogenes: IC50 (MCF10)/MIC (pathogen), both values in µM; for MIC: Streptococcus pyogenes
Procedure: (§1) Stock solutions of standard antibiotics and test compounds were made at 50 mM in DMSO. […] For susceptibility testing, 10 µL of glycerol stock was suspended in a 10 mL shake flask culture of chemically defined Isosensitest broth (Oxoid) supplemented with 2% w/v glucose. A sample of the shake flask culture was diluted to 1×10^6 cells/mL in media and added to 96-well test plates (100 µL per well) containing test compounds dispensed in DMSO (2 µL) using serial two-fold dilutions. After an incubation period (30°C) determined from the strain specific doubling time, a 0.03% w/v aqueous solution of resazurin (10 µL) was added and the plates were allowed to incubate; each well was then scored for dye reduction.

MRSA (S.aureus 13709) = test: MIC, broth microdilution with Alamar Blue; assay type: cell-based, Staphylococcus aureus; conditions: for Selectivity MRSA: IC50 (MCF10)/MIC (pathogen), both values in µM; for MIC: Staphylococcus aureus, MRSA
Procedure: as §1

USA300 CA-MRSA = test: MIC against clinical isolates of MRSA; assay type: cell-based, Staphylococcus aureus; conditions: Staphylococcus aureus, clinical isolate, read-out: MIC USA300 CA-MRSA
[1] = tested on: TMP-SMZ-resistant MRSA strain; test: MIC against clinical isolates of MRSA; assay type: cell-based; conditions: Staphylococcus aureus, clinical isolate, Table 4, read-out: MIC TMP-SMZ^R
MCF-10 cells = test: Mammalian cell toxicity (Alamar Blue); assay type: cell-based; conditions: Homo sapiens, MCF10; cytotoxicity, 4 h incubation; read-out: IC50 MCF-10
Procedure: Adherent cell lines were maintained in Eagle's Minimal Essential Media (Sigma-Aldrich, St. Louis, MO, USA) with 2 mM glutamine and Earle's Balanced Salt Solution (HyClone, Logan, UT, USA) adjusted to contain 1.5 g/L sodium bicarbonate, 0.1 mM non-essential amino acids, 1 mM sodium pyruvate and 10% fetal calf serum. Fetal calf serum used in these assays was lot matched throughout. […] Toxicity assays were conducted between passages 10–20. Target compound toxicity was measured by incubating the test compound with the cells for 4 h, washing the cells and finally treating the cells with Alamar Blue. After 12–24 h, the fluorescence of the reduced dye was measured. Fluorescence intensity as a function of test compound concentration was fit to the Fermi equation, using non-linear least squares regression analysis, to estimate IC50 values.

HepG2 cells = test: Mammalian cell toxicity (Alamar Blue); assay type: cell-based; conditions: Homo sapiens, cytotoxicity, 4 h incubation
Procedure: Fetal calf serum used in these assays was lot matched throughout. All cultures were maintained under a humidified 5% CO2 atmosphere at 37°C, had media refreshed twice weekly and were subcultured by trypsinization and resuspension at a ratio of 1∶5 each week. Toxicity assays were conducted between passages 10–20. Target compound toxicity was measured by incubating the test compound with the cells for 4 h, washing the cells and finally treating the cells with Alamar Blue. After 12–24 h, the fluorescence of the reduced dye was measured. Fluorescence intensity as a function of test compound concentration was fit to the Fermi equation, using non-linear least squares regression analysis, to estimate IC50 values.

HA-MRSA = test: MIC against clinical isolates of MRSA; assay type: cell-based; conditions: Staphylococcus aureus, clinical isolate, read-out: MIC HA-MRSA
S. pyogenes DHFR = S. pyogenes DHFR (Streptococcus pyogenes, UniProt Q9A091); test: biochemical; assay type: biochemical; conditions: for Selectivity (h/Sp): IC50 (human)/IC50 (pathogen)
Chain of S. pyogenes DHFR (Q9A091 entry or part of it): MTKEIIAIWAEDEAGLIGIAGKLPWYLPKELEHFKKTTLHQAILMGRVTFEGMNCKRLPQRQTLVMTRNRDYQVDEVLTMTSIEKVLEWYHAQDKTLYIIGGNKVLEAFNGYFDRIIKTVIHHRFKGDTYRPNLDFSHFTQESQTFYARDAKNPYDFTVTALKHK
Procedure: (§2) S. aureus DHFR was cloned, expressed and purified as previously described. Briefly, the DHFR gene was inserted into vector pET41 with a His8 tag for purification. The protein was expressed in E. coli BL21 (DE3) cells. […] The protein was concentrated to ∼5 mg/mL. S. pyogenes DHFR was cloned using PCR from genomic DNA and inserted in vector pET-41.
(§3) Enzyme inhibition assays were performed by monitoring the rate of NADPH oxidation by the DHFR enzyme at an absorbance of 340 nm over five minutes. Assays were performed in the presence of saturating concentrations of NADPH (100 µM) and initiated with dihydrofolate (1 mM). All assays were completed at 25°C in a buffer containing 20 mM TES pH 7.0, 50 mM KCl, 10 mM 2-mercaptoethanol, 0.5 mM EDTA and 1 mg/mL BSA. Inhibition was measured at least three times with inhibitor concentrations near the IC50 value and the average IC50 value is reported with a standard deviation.

S. aureus DHFR = target: T1, S. aureus DHFR (Staphylococcus aureus, UniProt P0A017); test: biochemical; assay type: biochemical; conditions: for Selectivity (h/Sa): IC50 (human)/IC50 (pathogen)
T1 construct: the DHFR gene was inserted into vector pET41 with a His8 tag for purification; His8; made in house; host or cells: E. coli BL21 (DE3)
T1 sequence (P0A017 whole entry): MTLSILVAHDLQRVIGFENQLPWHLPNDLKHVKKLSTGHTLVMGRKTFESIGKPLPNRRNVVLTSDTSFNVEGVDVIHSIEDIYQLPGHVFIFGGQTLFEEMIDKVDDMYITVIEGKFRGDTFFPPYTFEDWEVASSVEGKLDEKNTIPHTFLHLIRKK
Procedure: as §2, §3

Human DHFR = target: T2, Human DHFR (Homo sapiens, UniProt P00374); test: DHFR enzyme inhibition assay (NADPH oxidation, 340 nm); assay type: biochemical; conditions: human DHFR; average of at least three measurements; read-out: IC50 (nM) Human
T2 sequence (P00374 1-187): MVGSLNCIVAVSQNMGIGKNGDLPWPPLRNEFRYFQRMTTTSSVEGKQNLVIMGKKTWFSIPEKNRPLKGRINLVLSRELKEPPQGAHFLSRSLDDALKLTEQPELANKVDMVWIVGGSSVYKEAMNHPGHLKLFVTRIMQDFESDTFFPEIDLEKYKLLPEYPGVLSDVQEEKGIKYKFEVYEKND
Procedure: as §3

hVISA Mu3 = test: MIC against clinical isolates of MRSA; assay type: cell-based; conditions: Staphylococcus aureus; heteroresistant vancomycin intermediate S. aureus; read-out: MIC hVISA Mu3
VISA Mu50 = test: MIC against clinical isolates of MRSA; assay type: cell-based; conditions: Staphylococcus aureus, read-out: MIC VISA Mu50
USA100 HA-MRSA = test: MIC against clinical isolates of MRSA; assay type: cell-based; conditions: Staphylococcus aureus, clinical isolate, read-out: MIC USA100 HA-MRSA
MRSA strain ATCC 43300 = conditions: selection at ten times the MIC value
Procedure: Selective plates were grown for 30 hours at 37°C. […] Direct colony PCR was used to isolate and amplify the dfrA gene from resistant strains using methods described in [34]. All PCR products were screened for point mutations in DHFR by high quality DNA sequencing (Genewiz). Primers used to detect the dfrA gene contained restriction enzyme cut sites for NdeI and XhoI in order to ligate PCR products into the pET41 vector for further validation with DNA sequencing with the T7 promoter sequencing primer. Mutation frequencies were calculated based on the sequencing information provided for each mutant colony.

[2] = tested on: MRSA strain containing the F98Y mutation; test: MIC against MRSA strain containing the F98Y mutation; assay type: cell-based; conditions: Staphylococcus aureus, read-out: MIC against MRSA strain containing the F98Y mutation
[3] = tested on: Staphylococcus aureus subsp. aureus ATCC 44300; test: MIC and MBC determination (microdilution, plating on Isosensitest agar); assay type: cell-based; conditions: ATCC44300
Text: MBC was defined as the lowest concentration of inhibitor preventing colony growth on agar plates.

[4] = value in parentheses, read-out: MIC S. pyogenes
[5] = value in parentheses, read-out: MIC MRSA
[6] = S. aureus DHFR, average of at least three measurements, read-out: IC50 (nM) Sa

SMILES	Selectivity S. pyogenes (Streptococcus pyogenes)	MIC (Streptococcus pyogenes; [4]) [µM]	MIC (Streptococcus pyogenes; read-out: MIC S. pyogenes) [µg/mL]	Selectivity MRSA (MRSA (S.aureus 13709))	MIC (MRSA (S.aureus 13709); [5]) [µM]	MIC (MRSA (S.aureus 13709); read-out: MIC MRSA) [µg/mL]	MIC (USA300 CA-MRSA; USA300) [µg/mL]	MIC (USA300 CA-MRSA) [µg/mL]	MIC [1] [µg/mL]	IC50 (MCF-10 cells) [nM]	IC50 (HepG2 cells) [nM]	MIC (HA-MRSA) [µg/mL]	Selectivity (h/Sp) (S. pyogenes DHFR)	Selectivity (h/Sa) (S. aureus DHFR)	IC50 (Human DHFR) [nM]	MIC (hVISA Mu3) [µg/mL]	MIC (VISA Mu50) [µg/mL]	MIC (USA100 HA-MRSA; USA100) [µg/mL]	MIC (USA100 HA-MRSA; first USA100 column) [µg/mL]	MIC (USA100 HA-MRSA; third USA100 column) [µg/mL]	further results
CCc1nc(N)nc(N)c1C#CCc1cccc(-c2cccnc2)c1 [Compound 36]	>2,000	0.25	0.08	>4,000	0.125	0.041	0.36 (≈ 1.09 µM)	0.02 (≈ 0.0607 µM)	0.045 (≈ 0.137 µM)	> 500000	> 500000	0.36 (≈ 1.09 µM)	6	9	290 ± 15	0.36 (≈ 1.09 µM)	0.72 (≈ 2.19 µM)	0.36 (≈ 1.09 µM)	5.76 (≈ 17.5 µM)	0.09 (≈ 0.273 µM)	IC50 (S. aureus DHFR; [6]): 33 ± 0.5 nM
COc1cc(-c2ccncc2)cc(C(C)C#Cc2c(C)nc(N)nc2N)c1 (stereo not shown) [Compound 24]	1,760	0.125	0.04	1,760	0.125	0.04	0.09 (≈ 0.25 µM)	0.045 (≈ 0.125 µM)	0.045 (≈ 0.125 µM)	220000	233000	0.09 (≈ 0.25 µM)	9.4	58	1500 ± 8	0.045 (≈ 0.125 µM)	0.18 (≈ 0.501 µM)	0.045 (≈ 0.125 µM)	2.9 (≈ 8.07 µM)	0.09 (≈ 0.25 µM)	MIC (Streptococcus pyogenes; 10% FCS, read-out: MIC S. pyogenes +FCS): 0.09 µg/mL; MIC (Streptococcus pyogenes; 10% FCS, value in parentheses, read-out: MIC S. pyogenes +FCS): 0.25 µM; MIC (MRSA (S.aureus 13709); 10% fetal calf serum, read-out: MIC MRSA +FCS): 0.09 µg/mL; MIC (MRSA (S.aureus 13709); 10% fetal calf serum, value in parentheses, read-out: MIC MRSA +FCS): 0.25 µM; resistance frequency (MRSA strain ATCC 43300): 3.9×10^−10; MIC [2]: 2.5 µg/mL (≈ 6.96 µM); MBC [3]: 0.078 µg/mL (≈ 0.217 µM); MIC [3]: 0.078 µg/mL (≈ 0.217 µM); IC50 (S. aureus DHFR; [6]): 26 ± 2 nM
CCc1nc(N)nc(N)c1C#CC(C)c1cc(OC)cc(-c2ccncc2)c1 (stereo not shown) [Compound 25]	–	0.032	0.012	–	0.5	0.09	0.09 (≈ 0.241 µM)	0.045 (≈ 0.12 µM)	0.09 (≈ 0.241 µM)	85000	171000	0.02 (≈ 0.0536 µM)	–	–	1300 ± 11	0.09 (≈ 0.241 µM)	0.09 (≈ 0.241 µM)	0.09 (≈ 0.241 µM)	2.9 (≈ 7.77 µM)	0.09 (≈ 0.241 µM)	MBC [3]: 0.078 µg/mL (≈ 0.209 µM); MIC [3]: 0.078 µg/mL (≈ 0.209 µM); IC50 (S. pyogenes DHFR): 180 ± 19 nM; IC50 (S. aureus DHFR): 19 ± 1 nM
